{
  "source": "paper PMC13010326",
  "about": "“Fragment-Based Development of NSP14 Exonuclease Inhibitors Confounded by Batch-to-Batch Variability” (ACS Chemical Biology, 2026)",
  "key": {"NSP14 ExoN [1]": {"target": "T1, NSP14 ExoN (Severe acute respiratory syndrome coronavirus 2, UniProt P0DTD1)", "assay": "biochemical"}, "NSP14": {"target": "NSP14 (Severe acute respiratory syndrome coronavirus 2, UniProt P0DTD1)", "assay": "NSP14 DSF thermal shift assay", "assay_type": "binding, SARS-CoV-2", "conditions": "1 mM compound", "protocol": "In technical triplicate, NSP14 (0.15 mg mL^–1) was prepared in 20 mM HEPES pH 7.5, 200 mM NaCl, 1 mM TCEP, and 2 mM MgCl2 and mixed with 1 mM compound or 2% DMSO. Samples were rested for 10 min and then mixed with SYPRO Orange (3× concentration, Invitrogen No. S6650). Raw melting curves (25–99 °C, 0.05 °C C/s, 20 μL volume) were collected on a QuantStudio 3 (Applied Biosystems) and each replicate well was individually normalized from 0 to 100 prior to averaging."}, "substrate dsRNA": {"system": "substrate dsRNA", "assay": "Thiazole orange dsRNA intercalation (competition) counter-screen", "assay_type": "binding", "conditions": "final 0.5% DMSO", "protocol": "RNase T1 inhibition assay and thiazole orange RNA intercalation counter-screening assays were conducted essentially as previously reported. The TR-FRET ExoN activity assay dsRNA substrate and Assay Buffer were used for the intercalation assay and mixed with compounds in a final 0.5% DMSO."}, "NSP14 ExoN [2]": {"target": "T1, NSP14 ExoN", "set-up": "method as in not given", "conditions": "small biochemical screens; promiscuous compounds; ref not given; cited from earlier work"}, "[3]": {"conditions": "original (first) compound batches, read-out: pIC50, inhibition of NSP14 ExoN in biochemical activity assay (converted)"}, "[4]": {"conditions": "resynthesized, more stringently purified second batch"}, "[5]": {"conditions": "biochemically active (first) batch"}},
  "note": "Read-outs that look alike come from different tables or passages of the source.",
  "data": [
    {"smiles": "Cc1cc(N2CCNCC2)nc(C)n1", "note": "[Compound 1, reference compound]", "values": [
      {"measurement": "IC50", "setting": "NSP14 ExoN [1]; [3]", "result": 398, "unit": "µM"}
    ]},
    {"smiles": "Cc1csc(CNC(=O)c2cc[nH]n2)n1", "note": "[Compound 2, reference compound]", "values": [
      {"measurement": "IC50", "setting": "NSP14 ExoN [1]; [3]", "result": "> 501", "unit": "µM"}
    ]},
    {"smiles": "CC(C)c1csc(CNC(=O)c2cc[nH]n2)n1", "note": "[Compound 3]", "values": [
      {"measurement": "IC50", "setting": "NSP14 ExoN [1]; [3]", "result": 2.51, "unit": "µM"},
      {"measurement": "Activity of second batches against NSP14 ExoN", "setting": "NSP14 ExoN [1]; [4]", "result": "inactive"},
      {"measurement": "NSP14 destabilization by differential scanning fluorimetry (DSF)", "setting": "NSP14; [5]", "result": "evidence of NSP14 destabilization"},
      {"measurement": "NSP14 destabilization by differential scanning fluorimetry (DSF)", "setting": "NSP14; biochemically inactive second batch", "result": "did not"}
    ]},
    {"smiles": "C#Cc1nc(CNC(=O)c2cc[nH]n2)cs1", "note": "[Compound 4]", "values": [
      {"measurement": "IC50", "setting": "NSP14 ExoN [1]; original (first) batch, n = 5, read-out: IC50, inhibition of NSP14 ExoN in biochemical activity assay (as printed in text for 4) (converted)", "result": 158, "unit": "µM"}
    ]},
    {"smiles": "C=Cc1csc(CNC(=O)c2cc[nH]n2)n1", "note": "[Compound 5]", "values": [
      {"measurement": "IC50", "setting": "NSP14 ExoN [1]; [3]", "result": 251, "unit": "µM"}
    ]},
    {"smiles": "O=C(NCc1nc(C2CC2)cs1)c1cc[nH]n1", "note": "[Compound 6]", "values": [
      {"measurement": "IC50", "setting": "NSP14 ExoN [1]; [3]", "result": 50.1, "unit": "µM"},
      {"measurement": "Activity of second batches against NSP14 ExoN", "setting": "NSP14 ExoN [1]; [4]", "result": "inactive"}
    ]},
    {"smiles": "O=C(NCc1nc(C2CC2)cs1)c1cc(CNCC2CC2)[nH]n1", "note": "[Compound 12, 5-(((Cyclopropylmethyl)amino)methyl)-N-((4-cyclopropylthiazol-2-yl)methyl)-1H-pyrazole-3-carboxamide]", "values": [
      {"measurement": "Activity of second batches against NSP14 ExoN", "setting": "NSP14 ExoN [1]", "result": "inactive"},
      {"measurement": "Binding to substrate dsRNA by thiazole orange competition assay", "setting": "substrate dsRNA", "result": "neither bound to substrate dsRNA"},
      {"measurement": "NSP14 destabilization by differential scanning fluorimetry (DSF)", "setting": "NSP14; [5]", "result": "evidence of NSP14 destabilization"}
    ]},
    {"smiles": "CC(=O)NCc1cc(C(=O)NCc2nc(C3CC3)cs2)n[nH]1", "note": "[Compound 13]", "values": [
      {"measurement": "Activity of second batches against NSP14 ExoN", "setting": "NSP14 ExoN [1]", "result": "inactive"},
      {"measurement": "Binding to substrate dsRNA by thiazole orange competition assay", "setting": "substrate dsRNA", "result": "neither bound to substrate dsRNA"},
      {"measurement": "NSP14 destabilization by differential scanning fluorimetry (DSF)", "setting": "NSP14; [5]", "result": "evidence of NSP14 destabilization"}
    ]},
    {"smiles": "O=C(NCc1nc(C2CC2)cs1)c1n[nH]c2ncccc12", "note": "[Compound 14]", "values": [
      {"measurement": "IC50", "setting": "NSP14 ExoN [1]; [3]", "result": 158, "unit": "µM"}
    ]},
    {"smiles": "CC(=O)NCc1cc(C(=O)NCc2nc(C(C)C)cs2)n[nH]1", "note": "[Compound 15]", "values": [
      {"measurement": "IC50", "setting": "NSP14 ExoN [1]; [3]", "result": "> 501", "unit": "µM"}
    ]},
    {"smiles": "CC(C)c1csc(CNC(=O)c2cc(CNCC3CC3)[nH]n2)n1", "note": "[Compound 16]", "values": [
      {"measurement": "IC50", "setting": "NSP14 ExoN [1]; [3]", "result": "> 501", "unit": "µM"}
    ]},
    {"smiles": "O=C(O)C1=CC(=C(c2ccc(O)c(C(=O)O)c2)c2ccc(O)c(C(=O)O)c2)C=CC1=O", "note": "[aurintricarboxylic acid]", "values": [
      {"measurement": "Inhibition of NSP14 ExoN (in words)", "setting": "NSP14 ExoN [2]", "result": "can inhibit NSP14 ExoN"}
    ]},
    {"smiles": "O=c1c2ccccc2[se]n1-c1ccccc1", "note": "[ebselen]", "values": [
      {"measurement": "Inhibition of NSP14 ExoN (in words)", "setting": "NSP14 ExoN [2]", "result": "can inhibit NSP14 ExoN"}
    ]},
    {"smiles": "O=C1C=C2C(=CCOC2O)O1", "note": "(centres unmarked) [patulin]", "values": [
      {"measurement": "Inhibition of NSP14 ExoN (in words)", "setting": "NSP14 ExoN [2]", "result": "can inhibit NSP14 ExoN"}
    ]},
    {"smiles": "CC(C)=CCOc1ccc(/C=C/C(=O)c2ccc(OCC=C(C)C)cc2OCC(=O)O)cc1", "note": "[sofalcone]", "values": [
      {"measurement": "Inhibition of NSP14 ExoN (in words)", "setting": "NSP14 ExoN [2]", "result": "can inhibit NSP14 ExoN"}
    ]}
  ]
}
